{"source": "patent US20060228730A1", "about": "“Methods for identifying small molecules that bind specific RNA structural motifs” (priority 2001, published 2006)", "key": {"[1]": {"tested_on": "Rev / IIB (or RRE) region of HIV RNA", "details": "Zapp et al., Cell, 1993; cited from earlier work"}, "[2]": {"tested_on": "60-mer from ribosomal RNA", "details": "Cundliffe et al., 1990; cited from earlier work"}, "[3]": {"tested_on": "HIV-1 TAR element TAR RNA oligonucleotide", "assay": "Gel retardation analysis (gel mobility shift), Tat peptide-TAR RNA", "format": "binding", "details": "Tat47-58 0.1-1.6 μM, 50 pmole TAR RNA, TK buffer, 12% non-denaturing polyacrylamide gel, FIG. 1", "procedure": "FIG. 1. Gel retardation analysis to detect peptide-RNA interactions. In 20 μl reactions containing increasing concentrations of Tat47.58 peptide (0.1 μM, 0.2 μM, 0.4 μM, 0.8 μM, 1.6 μM) 50 pmole TAR RNA oligonucleotide was added in TK buffer. The reaction mixture was then heated at 90° C. for 2 min and allowed to cool slowly to 24° C. […] of 30% glycerol was added to each sample and applied to a 12% non-denaturing polyacrylamide gel. The gel was electrophoresed using 1200 volt-hours at 4° C. in TBE Buffer. Following electrophoresis, the gel was dried and the radioactivity was quantitated with a phosphorimager. The concentration of peptide added is indicated above each lane.\nTris-potassium chloride (TK) buffer is composed of 50 mM Tris-HC1 pH 7.4, 20 mM KCl, 0.1%Triton X-100, and 0.5 mM MgCl2. Tris-borate-EDTA (TBE) buffer is composed of 45 mM Tris-borate pH 8.0, and 1 mM EDTA. […]\nRNA oligonucleotides were purchased from Dharmacon, Inc, Lafayette, Colo.). […] Then 10 μl of 30% glycerol was added to each reaction tube and the entire sample was loaded onto a TBE non-denaturing polyacrylamide gel and electrophoresed at 1200-1600 volt-hours at 4° C.; The gel was exposed to an intensifying screen and radioactivity was quantitated using a Typhoon phosporimager (Molecular Dynamics)."}, "[4]": {"tested_on": "HIV-1 TAR element TAR RNA oligonucleotide", "assay": "Gel retardation analysis using automated capillary electrophoresis, Tat peptide-TAR RNA", "format": "binding", "details": "increasing concentrations of Tat peptide (0.1-1.6 μM), TK buffer, SCE9610 apparatus, FIG. 5", "procedure": "FIG. 5. Gel retardation analysis to detect peptide-RNA interactions. In reactions containing increasing concentrations of Tat47-58 peptide (0.1 μM, 0.2 μM, 0.4 μM, 0.8 μM, 1.6 μM) 50 pmole TAR RNA oligonucleotide was added in TK buffer. The reaction mixture was then heated at 90° C. for 2 min and allowed to cool slowly to 24° C. The reactions were loaded onto a SCE9610 automated capillary electrophoresis apparatus (SpectruMedix; State College, Pennsylvania). The peaks correspond to the amount of free TAR RNA (“TAR”) or the Tat-TAR complex (“Tat-TAR”). The concentration of peptide added is indicated below each lane.\nTris-potassium chloride (TK) buffer is composed of 50 mM Tris-HCl pH 7.4, 20 mM KCl, 0.1% Triton X-100, and 0.5 mM MgCl2. Tris-borate-EDTA (TBE) buffer is composed of 45 mM Tris-borate pH 8.0, and 1 mM EDTA. Tris-Potassium chloride-magnesium (TKM) buffer is composed of 50 mM Tris-HCl pH 7.4, 20 mM KCl, 0.1% Triton X-100 and 5 mM MgCl2.\nRNA oligonucleotides were purchased from Dharmacon, Inc. Lafayette, Colo.). 500 pmole of a 5′ fluorescein labeled oligonucleotide corresponding to the HIV-1 TAR element TAR RNA (5′-[…]-3′ (SEQ ID NO: 30); Huq et al., 1999, Nucleic Acids Research. 27:1084-1093; Hwang et al., 1999, Proc. Natl. Acad. Sci. USA 96:12997-13002) was used. […]"}, "[5]": {"tested_on": "HIV TAR RNA element oligonucleotide", "assay": "Gel mobility shift, specificity control with unrelated oligonucleotide", "format": "binding", "details": "incubated with 10 μg/ml gentamicin, FIG. 3", "procedure": "(§1) FIG. 3. The presence of 10 pg/ml gentamicin produces a gel mobility shift in the presence of the 16S rRNA oligonucleotide. 20 μl reactions containing increasing concentrations of gentamicin (100 ng/ml, 10 ng/ml, 1 ng/ml, 100 pg/ml, and 10 pg/ml) were added to 50 pmole RNA oligonucleotide in TKM buffer were treated as described for FIG. 2.\nRNA oligonucleotides were purchased from Dharmacon, Inc, Lafayette, Colo.). 500 pmole of either a 5′ fluorescein labeled oligonucleotide corresponding to the 16S rRNA A site (5′-[…]-3′ (SEQ ID NO: 29); Moazed & Noller, 1987, Nature 327:389-394; Woodcock et al., 1991, EMBO J. 10:3099-3103; Yoshizawa et al., 1998, EMBO J. 17:6437-6448) or a 5′ fluorescein labeled oligonucleotide corresponding to the HIV-1 TAR element TAR RNA (5′-[…]-3′ (SEQ ID NO: 30); Huq et al., 1999, Nucleic Acids Research. 27:1084-1093; Hwang et al., 1999, Proc. Natl. Acad. Sci. USA 96:12997-13002) was 3′ labeled with 5-^32P cytidine 3′,5′-bis(phosphate) (NEN) and T4 RNA ligase (NEBiolabs) in 10% DMSO as per manufacturer's instructions. […] Then 10 μl of 30% glycerol was added to each reaction tube and the entire sample was loaded onto a TBE non-denaturing polyacrylamide gel and electrophoresed at 1200-1600 volt-hours at 4° C.; The gel was exposed to an intensifying screen and radioactivity was quantitated using a Typhoon phosporimager (Molecular Dynamics). […]"}, "[6]": {"tested_on": "oligonucleotide corresponding to the 16S rRNA A site", "assay": "Gel retardation analysis (gel mobility shift), gentamicin-16S rRNA", "format": "binding", "procedure": "FIG. 2. Gentamicin interacts with an oligonucleotide corresponding to the 16S rRNA. 20 μl reactions containing increasing concentrations of gentamicin (1 ng/ml, 10 ng/ml, 100 ng/ml, 1 μg/ml, 10 μg/ml, 50 μg/ml, 500 μg/ml) were added to 50 pmole RNA oligonucleotide in TKM buffer, heated at 90° C. for 2 min and allowed to cool slowly to 24° C. Then 10 μl of 30% glycerol was added to each sample and the samples were applied to a 13.5% non-denaturing polyacrylamide gel. The gel was electrophoresed using 1200 volt-hours at 4° C. in TBE Buffer Following electrophoresis, the gel was dried and the radioactivity was quantitated using a phosphorimager. The concentration of gentamicin added is indicated above each lane.\nas §1\nFIG. 4. Gentamicin binding to the 16S rRNA oligonucleotide is weak in the absence of MgCl2.\nTris-potassium chloride (TK) buffer is composed of 50 mM Tris-HC1 pH 7.4, 20 mM KCl, 0.1%Triton X-100, and 0.5 mM MgCl2. Tris-borate-EDTA (TBE) buffer is composed of 45 mM Tris-borate pH 8.0, and 1 mM EDTA. Tris-Potassium chloride-magnesium (TKM) buffer is composed of 50 mM Tris-HCl pH 7.4, 20 mM KCl, 0.1% Triton X-100 and 5 mM MgCl2.\nRNA oligonucleotides were purchased from Dharmacon, Inc, Lafayette, Colo.). 500 pmole of either a 5′ fluorescein labeled oligonucleotide corresponding to the 16S rRNA A site (5′-[…]-3′ (SEQ ID NO: 29); Moazed & Noller, 1987, Nature 327:389-394; Woodcock et al., 1991, EMBO J. 10:3099-3103; Yoshizawa et al., 1998, EMBO J. 17:6437-6448) or a 5′ fluorescein labeled oligonucleotide corresponding to the HIV-1 TAR element TAR RNA (5′-[…]-3′ (SEQ ID NO: 30); Huq et al., 1999, Nucleic Acids Research. 27:1084-1093; Hwang et al., 1999, Proc. Natl. Acad. Sci. USA 96:12997-13002) was 3′ labeled with 5-^32P cytidine 3′,5′-bis(phosphate) (NEN) and T4 RNA ligase (NEBiolabs) in 10% DMSO as per manufacturer's instructions. The labeled oligonucleotides were purified using G-25 Sephadex columns (Boehringer Mannheim). For Tat-TAR gel retardation reactions the method of Huq et al. (Nucleic Acids Research, 1999, 27:1084-1093) was utilized with TK buffer containing 0.5 mM MgCl2 and a 12-mer Tat peptide (YGRKKRRQRRRP (SEQ ID NO: 31); single letter amino acid code). For 16S rRNA-gentamicin reactions, the method of Huq et al. was used with TKM buffer. In 20 μl reaction volumes 50 pmoles of ^32P cytidine-labeled oligonucleotide and either gentamicin sulfate (Sigma) or the short Tat peptide (Tat47.58) in TK or TKM buffer were heated at 90° C. for 2 minutes and allow to cool to room temperature (approximately 24° C.) over 2 hours. Then 10 μl of 30% glycerol was added to each reaction tube and the entire sample was loaded onto a TBE non-denaturing polyacrylamide gel and electrophoresed at 1200-1600 volt-hours at 4° C.; The gel was exposed to an intensifying screen and radioactivity was quantitated using a Typhoon phosporimager (Molecular Dynamics)."}}}
{"compound": "NC[C@@H]1O[C@H](O[C@H]2[C@@H](O)[C@H](O[C@@H]3[C@@H](O)[C@H](N)C[C@H](N)[C@H]3O[C@H]3O[C@H](CO)[C@@H](O)C[C@H]3N)O[C@@H]2CO)[C@H](N)[C@@H](O)[C@@H]1O[C@H]1O[C@H](CO)[C@@H](O)[C@H](O)[C@@H]1O", "note": "[lividomycin A]", "values": [{"measurement": "blocking of the binding of Rev to its viral recognition element in the IIB (or RRE) region of HIV RNA", "setting": "[1]", "result": "can block the binding"}]}
{"compound": "NC[C@@H]1O[C@H](O[C@H]2[C@@H](O)[C@H](O[C@@H]3[C@@H](O)[C@H](N)C[C@H](N)[C@H]3O[C@H]3O[C@H](CN)[C@@H](O)[C@H](O)[C@H]3N)O[C@@H]2CO)[C@H](N)[C@@H](O)[C@@H]1O", "note": "[neomycin B]", "values": [{"measurement": "blocking of the binding of Rev to its viral recognition element in the IIB (or RRE) region of HIV RNA", "setting": "[1]", "result": "can block the binding"}]}
{"compound": "NC[C@H]1O[C@H](O[C@H]2[C@H](O)[C@@H](O[C@H]3O[C@H](CO)[C@@H](O)[C@H](N)[C@H]3O)[C@H](N)C[C@@H]2N)[C@H](N)C[C@@H]1O", "note": "[tobramycin]", "values": [{"measurement": "blocking of the binding of Rev to its viral recognition element in the IIB (or RRE) region of HIV RNA", "setting": "[1]", "result": "can block the binding"}]}
{"compound": "thiostreptone", "values": [{"measurement": "binding to a 60-mer from ribosomal RNA", "setting": "[2]", "result": "binds tightly"}]}
{"compound": "YGRKKRRQRRRP [Tat47.58 peptide]", "values": [{"measurement": "gel mobility shift of TAR RNA oligonucleotide in the presence of the Tat peptide", "setting": "[3]", "result": "a clear shift is visible"}, {"measurement": "shift of TAR RNA peak in automated capillary electrophoresis", "setting": "[4]", "result": "a clear shift is visible"}]}
{"compound": "gentamicin", "values": [{"measurement": "gel mobility shift of unrelated oligonucleotide (HIV TAR RNA element)", "setting": "[5]", "result": "does not result in a gel mobility shift"}, {"measurement": "gentamicin concentration as low as which produces the mobility shift", "setting": "[6]; TKM buffer (5 mM MgCl2), FIG. 2", "result": 10, "unit": "ng/mL"}, {"measurement": "gentamicin concentration as low as which gel mobility shifts are produced", "setting": "[6]; TKM buffer, concentrations ranged from 100 ng/ml to 10 pg/ml, FIG. 3", "result": 10, "unit": "pg/mL"}, {"measurement": "gentamicin binding to the 16S rRNA oligonucleotide in the absence of MgCl2", "setting": "[6]; buffer does not contain MgCl2, FIG. 4 legend", "result": "weak"}, {"measurement": "mobility shift when gentamicin is added after renaturation has proceeded to 75° C.", "setting": "[6]; gentamicin added after the renaturation step proceeded to 75° C.", "result": "a mobility shift is not produced"}, {"measurement": "gel shift when gentamicin is added at 90° C. or 85° C.", "setting": "[6]; gentamicin present during the entire denaturation/renaturation cycle, data not shown", "result": "a gel shift is visualized"}, {"measurement": "gentamicin concentration that must be added to produce a gel shift when MgCl2 is not present", "setting": "[6]; no MgCl2 in buffer, FIG. 4", "result": 1, "unit": "mg/mL"}, {"measurement": "mobility shift of RNA oligonucleotide corresponding to the 16S rRNA A site", "setting": "[6]; varying concentrations of gentamicin (1 ng/ml-500 μg/ml), TKM buffer, 13.5% non-denaturing gel, FIG. 2", "result": "produces a mobility shift"}]}
